Columns and labels:
[1] = target: T1, CYPA:RMC-4998:KRAS^G12C tri-complex (Homo sapiens, UniProt P01116+P62937, G12C); test: Tri-complex stability after compound washout, biophysical assays; assay type: binding
KRAS^G12C = KRAS^G12C (Homo sapiens, UniProt P01116+P62937, G12C); test: Kinetic target engagement assay; assay type: biochemical; conditions: active KRAS G12C in the presence of CYPA
KRAS^G13C = KRAS^G13C (Homo sapiens, UniProt P01116, G13C); test: Activity on RAS variants
[2] = target: KRAS^G12C in MIA PaCa-2 cells (Homo sapiens, UniProt P01116+P62937, G12C); test: Covalent modification of KRAS G12C in cells; assay type: cell-based
CYPA = CYPA (Homo sapiens, UniProt P62937); test: Reversible binary complex formation with CYPA; assay type: binding
KRAS^G12C mutant cells = test: Cancer cell line panel viability, 3D CellTiter-Glo; assay type: cell-based; conditions: n = 17 G12C, n = 11 non-G12C cell lines
GDP-loaded KRAS^G12C = GDP-loaded KRAS^G12C (Homo sapiens, UniProt P01116+P62937, G12C); test: Native PAGE tri-complex formation with GDP-loaded KRAS G12C; assay type: binding; conditions: KRAS G12C 2 μM, compound 10 μM, CYPA 2 μM
[3] = target: T1, CYPA:RMC-4998:KRAS^G12C tri-complex; test: Tri-complex stability after compound washout, cellular experiments; assay type: cell-based
[4] = test system: KRAS^G12C mutant NSCLC PDX models; test: Patient-derived xenograft panel, NSCLC; assay type: in vivo; conditions: 200 mg/kg orally once daily, 28-day treatment; 19/25 models
[5] = test system: KRAS^G12C mutant CRC PDX models; test: Patient-derived xenograft panel, CRC; assay type: in vivo; conditions: 200 mg/kg orally once daily, 28-day treatment; 6/15 models

| Structure (SMILES) | Effect of CYPA loss on cellular activity (CYPA-null H358 cells) | Tri-complex half-life after compound washout [1] | Covalent engagement efficiency kinact/KI (KRAS^G12C) | Activity on KRAS G13C (KRAS^G13C) | Time to complete covalent modification of KRAS G12C [2] [min] | koff of binary complex with CYPA (CYPA) [s⁻¹] | Kd (CYPA; read-out: Kd of binary complex with CYPA) [µM] | Selectivity index (G12C versus non-G12C mutant models) (KRAS^G12C mutant cells) | Complex formation with GDP-loaded KRAS G12C (GDP-loaded KRAS^G12C) | Tri-complex half-life after compound washout [3] | Models with mean tumor regression [4] [%] | Tolerability (NCI-H358 xenografts; mouse, in vivo, po) | Tumor response (NCI-H358 xenografts; oral once daily, 28 days) | Duration of KRAS G12C engagement and inhibition of ERK phosphorylation in tumors (NCI-H358 xenografts; single dose) | Models with mean tumor regression [5] [%] |
| --- | --- | --- | --- | --- | --- | --- | --- | --- | --- | --- | --- | --- | --- | --- | --- |
| C=C(F)C(=O)N1CCN(c2nc(OC[C@@H]3CCCN3C)nc3c2CCN(c2cccc4cccc(Cl)c24)C3)C[C@@H]1CC#N [adagrasib] | no effect |  |  |  |  |  |  |  |  |  |  |  |  |  |  |
| CCn1c(-c2cccnc2[C@H](C)OC)c2c3cc(ccc31)-c1cccc(c1)C[C@H](NC(=O)[C@H](C(C)C)N1CC[C@]3(CCN(C(=O)C#CC(C)(C)N(C)C)C3)C1=O)C(=O)N1CCC[C@H](N1)C(=O)OCC(C)(C)C2 [RMC-4998] |  | greater than 8 hours | 272,000 M^−1s^−1 | little, if any, activity | ≤ 5 | 1.0 | 1.09 | 1450 times | No complex was detected | greater than 8 hours |  |  |  |  |  |
| CCn1c(-c2cccnc2[C@H](C)OC)c2c3cc(ccc31)N1CCO[C@@H](C[C@H](NC(=O)[C@H](C(C)C)N(C)C(=O)C3(F)CCN(C(=O)C#CC(C)(C)N(C)C)CC3)C(=O)N3CCC[C@H](N3)C(=O)OCC(C)(C)C2)C1 [RMC-6291] |  |  |  |  |  |  |  | 13,500 times |  |  | 76 | well tolerated | near complete tumor regression | ~ 24 hours | 40 |

From PMC10474815 (Science (New York, N.Y.), 2023)
